Results taken from ChEMBL document CHEMBL2074347, “Circumvention of tumor multidrug resistance by a new annonaceous acetogenin: atemoyacin-B” (Acta Pharmacol Sin, 1999).

Experiments:
[1] = target: T1, ATP-dependent translocase ABCB1 (Homo sapiens, UniProt P08183); test: TP_TRANSPORTER: increase in Doxorubicin intracellular accumulation (Doxorubicin: ? uM, Ateomyacin-B: 168 uM) in MCF-7/Dox cells; assay type: functional, cell-based
[2] = target: T1, ATP-dependent translocase ABCB1; test: TP_TRANSPORTER: increase in Fura-2 intracellular accumulation (Fura-2: ? uM, Ateomyacin-B: 168 uM) in MCF-7/Dox cells; assay type: functional, cell-based

T1 sequence (P08183 whole entry): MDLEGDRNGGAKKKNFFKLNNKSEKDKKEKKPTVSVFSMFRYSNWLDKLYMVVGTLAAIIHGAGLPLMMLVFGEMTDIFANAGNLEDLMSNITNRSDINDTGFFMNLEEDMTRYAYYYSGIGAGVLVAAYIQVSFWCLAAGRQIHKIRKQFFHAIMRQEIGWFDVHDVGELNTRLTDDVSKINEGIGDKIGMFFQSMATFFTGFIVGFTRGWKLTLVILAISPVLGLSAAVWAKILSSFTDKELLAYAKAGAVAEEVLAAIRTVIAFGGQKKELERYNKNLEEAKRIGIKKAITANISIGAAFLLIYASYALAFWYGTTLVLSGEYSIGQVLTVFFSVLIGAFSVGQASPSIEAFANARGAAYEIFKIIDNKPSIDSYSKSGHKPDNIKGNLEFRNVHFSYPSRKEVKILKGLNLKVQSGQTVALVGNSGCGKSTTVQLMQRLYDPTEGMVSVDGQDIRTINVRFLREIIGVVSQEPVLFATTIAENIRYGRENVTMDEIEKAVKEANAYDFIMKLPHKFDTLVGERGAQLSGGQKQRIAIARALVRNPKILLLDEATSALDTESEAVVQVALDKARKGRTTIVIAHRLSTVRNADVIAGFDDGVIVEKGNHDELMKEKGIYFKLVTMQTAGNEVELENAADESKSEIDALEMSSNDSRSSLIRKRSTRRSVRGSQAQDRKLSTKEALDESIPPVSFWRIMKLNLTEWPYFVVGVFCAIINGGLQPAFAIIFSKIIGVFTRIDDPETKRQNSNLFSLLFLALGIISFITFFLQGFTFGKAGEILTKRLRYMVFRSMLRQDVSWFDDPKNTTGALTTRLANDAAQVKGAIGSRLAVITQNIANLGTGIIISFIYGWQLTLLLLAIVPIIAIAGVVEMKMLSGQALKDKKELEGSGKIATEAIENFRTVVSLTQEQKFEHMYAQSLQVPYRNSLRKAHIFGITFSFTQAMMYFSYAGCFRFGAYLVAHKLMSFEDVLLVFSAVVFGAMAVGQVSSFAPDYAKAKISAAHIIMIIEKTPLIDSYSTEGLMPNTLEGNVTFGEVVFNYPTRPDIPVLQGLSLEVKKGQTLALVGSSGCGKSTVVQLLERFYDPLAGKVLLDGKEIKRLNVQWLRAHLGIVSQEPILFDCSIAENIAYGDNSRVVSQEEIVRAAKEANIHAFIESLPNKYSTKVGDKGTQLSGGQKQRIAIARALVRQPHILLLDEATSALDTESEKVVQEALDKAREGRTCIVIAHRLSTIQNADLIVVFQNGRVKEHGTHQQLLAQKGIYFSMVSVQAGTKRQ

**Q.** For `CCCCCC(O)CCCCC(O)C1CCC(C2CCC(C(O)CCCCCCCCCCC3=CC(C)OC3=O)O2)O1` (configuration not stated) [Atemoyacin-B], which Activity [1] is on record?
**A.** The Activity was 3.28 fold.

**Q.** What about the Activity [2] of the same molecule?
**A.** Its Activity is 2.61 fold.
